Laboratory results reported in PMC9862175 (Molecules, 2023).
Where “and” joins values, the source holds several entries; their conditions need not be identical. Equal entries are not always repeated. Where two headings read alike, the source gives them in different places.

What was measured:
17β-HSD1 = target: T1, 17β-HSD1 (Homo sapiens, UniProt P14061); assay: 17β-HSD1 inhibition assay: transformation of [3H]-E1 to [3H]-E2 in whole T-47D cells; assay type: cell-based; conditions: for inhibition at 0.1 µM / inhibition at 1 µM / inhibition at 10 µM: T47D
T1 construct: endogenous in cells; host or cells: T-47D human breast cancer cells (ATCC), whole cells
T1 sequence (P14061 1-328): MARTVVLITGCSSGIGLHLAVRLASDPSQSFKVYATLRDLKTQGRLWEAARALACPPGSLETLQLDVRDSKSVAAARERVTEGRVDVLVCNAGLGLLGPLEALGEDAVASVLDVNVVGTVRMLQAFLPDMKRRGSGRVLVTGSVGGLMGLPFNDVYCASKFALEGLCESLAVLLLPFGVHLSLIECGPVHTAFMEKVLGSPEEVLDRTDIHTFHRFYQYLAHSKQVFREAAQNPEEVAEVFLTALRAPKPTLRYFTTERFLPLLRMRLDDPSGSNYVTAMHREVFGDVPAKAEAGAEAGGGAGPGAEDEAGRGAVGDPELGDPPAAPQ
Method: Cells were maintained under a 5% CO2 humidified atmosphere at 37 °C. The culture media were changed every two or three days and the cells were split once a week to maintain cell propagation.
T-47D cells were grown in a medium supplemented with insulin (50 ng/mL) and 5% dextran-coated charcoal-treated FBS, which was used rather than untreated 10% FBS, to remove the remaining steroid hormones. Stock solution of each compound to be tested was previously prepared in DMSO and diluted with a culture medium to achieve the appropriate concentrations, prior to use. For the assay, the cells (8000 cells/well) were seeded in a 24-well plate. After 24 h of incubation, a diluted solution of each inhibitor was added to the cells to obtain the appropriate final concentration (0.1, 1 and 10 μM). The final concentration of DMSO in the well was adjusted to 0.03%. […] Cells were incubated for 24 h and each inhibitor was assessed in triplicate. […] The organic phase was evaporated to dryness with nitrogen. Residues were dissolved in CH2Cl2, spotted on silica gel TLC plates (EMD Chemicals Inc., Gibbstown, NJ, USA) and eluted with toluene/acetone (4:1) as the solvent system. […] Each compound was quantified with a scintillation counter.

[1] = system: T-47D breast cancer cells; assay: Cell viability (MTS) assay in T-47D cells; assay type: cell-based, human; conditions: for IC50: cell proliferation after 3 days, MTS; for Stimulation of ER+ cell proliferation (estrogenic activity): T-47D cells, 3 days
Method: T-47D cells: Human T-47D breast cancer cells were obtained from American Type Culture Collection (Manassas, VA, USA) and cultured in RPMI-1640 supplemented with L-glutamine ([…]), penicillin (100 IU/mL), streptomycin (100 µg/mL), 17β-estradiol (1 nM) and 10% (v/v) fetal bovine serum (FBS). Cells were maintained under a 5% CO2 humidified atmosphere at 37 °C. The culture media were changed every two or three days and the cells were split once a week to maintain cell propagation.
(§1) The cell proliferation assays were performed using 3-(4,5-dimethylthiazol-2-yl)-5-(3-carboxymethoxyphenyl)-2-(4-sulfophenyl)-2H-tetrazolium (MTS) (Cell Titer 96 Aqueous, Promega, Nepean, ON, Canada), as previously described. Briefly, cells (5000/well for T-47D or 3000/well for Z-12) were plated in triplicate in 96-well plates in appropriate culture medium (total of 90 µL). Before each treatment, the cells were incubated at 37 °C in a 5% CO2 humidified atmosphere for 24 h. Compounds 5, 6, 10 and RM-581, as positive control, were dissolved in DMSO to obtain stock solutions, which were diluted at multiple concentrations with culture media to obtain the desired final concentration by adding 10 µL in each well, and the mixture was incubated for 3 days. Following treatment, 20 µL of a solution of MTS were added to each well and the mixture was incubated for 4 h. The plates were subsequently analyzed at 490 nm using a Tecan M-200 microplate reader (Männedorf, Switzerland) and the concentration inhibiting 50% of cell proliferation was determined using GraphPad Prism 6 software.

[2] = system: Z-12 endometriotic epithelial cells; assay: Cell viability (MTS) assay in Z-12 cells; assay type: cell-based, human; conditions: for IC50: cell proliferation after 3 days, MTS, read-out: Z-12 Cells (Endometriosis) (IC50 in μM), cell proliferation; for Stimulation of ER+ cell proliferation (estrogenic activity): Z-12 cells, 3 days
Method: Z-12 cells: Human Z-12 endometriotic epithelial cells were obtained from Dr. Asgi T. Fazleabas (Michigan State University, Grand Rapids, MI). Cells were grown in Dulbecco’s Modified Eagle medium (DMEM/F12) supplemented with 5% (v/v) FBS treated with dextran-coated charcoal, L-glutamine ([…]), penicillin (100 IU/mL) and streptomycin (100 µg/mL). Cells were maintained under a 5% CO2 humidified atmosphere at 37 °C. The culture media were changed every two or three days and the cells were split once a week to maintain cell propagation.
as §1

[3] = Homo sapiens, Epithelial cell, 72 h
[4] = read-out: Inhibition (IC50 in μM) of E1 to E2 transformation by 17β-HSD1, T-47D cells, [3H]-E1/E1 60 nM, 24 h
[5] = T-47D cells, [3H]-E1/E1 60 nM, 24 h, inhibitor 0.1 μM
[6] = T-47D cells, [3H]-E1/E1 60 nM, 24 h, inhibitor 1 μM
[7] = T-47D cells, [3H]-E1/E1 60 nM, 24 h, inhibitor 10 μM

| Structure (SMILES) | IC50 (17β-HSD1) | inhibition at 0.1 µM (17β-HSD1) | inhibition at 1 µM (17β-HSD1) | inhibition at 10 µM (17β-HSD1) | IC50 ([1]; Homo sapiens, T47D, 72 h) | Stimulation of ER+ cell proliferation (estrogenic activity) [1] | IC50 [2, 3] | Stimulation of ER+ cell proliferation (estrogenic activity) [2] | also measured |
| --- | --- | --- | --- | --- | --- | --- | --- | --- | --- |
| C[C@]12CC[C@@H]3c4ccc(Oc5cccc(C(N)=O)c5)cc4CC[C@H]3[C@@H]1CCC2=O [Compound 5, 3-(3-Carbamoylphenyloxy)-estra-1,3,5(10)-trien-17-one] | 0.31 µM | 29.1 ± 6.2% | 70.7 ± 14.1% | 98.9 ± 2.8% | 49 µM | did not stimulate | > 30 µM | did not stimulate |  |
| C[C@]12CC[C@@H]3c4ccc(Oc5cccc(C(N)=O)c5)cc4CC[C@H]3[C@@H]1CC[C@@H]2O [Compound 6, 3-(3-Carbamoylphenyloxy)-estra-1,3,5(10)-trien-17β-ol] | 1.2 µM | 40 ± 6.5% | 48.6 ± 15.7% | 59.6 ± 1.5% | 37 µM | did not stimulate | > 30 µM | did not stimulate |  |
| C[C@]12CC[C@@H]3c4ccc(Oc5cccc(C(N)=O)c5)cc4CC[C@H]3[C@@H]1C[C@@H](CCCBr)[C@@H]2O [Compound 10, 3-(3-Carbamoylphenyloxy)-16α-(3-bromopropyl)-estra-1,3,5(10)-trien-17β-ol] |  | 28.2 ± 5.4% | 37 ± 14.5% | 82.1 ± 5.7% | 14 µM | did not stimulate | 20 µM | did not stimulate | Inhibitory activity, fold lower than EM-251 (17β-HSD1; IC50 1.3 μM vs 0.58 μM of EM-251, T-47D cells): 2 fold; IC50 (17β-HSD1; [4]): 1.3 µM |
| C[C@]12CC[C@@H]3c4ccc(O)cc4CC[C@H]3[C@@H]1CCC2=O [E1, estrone] |  |  |  |  |  |  |  |  | inhibition at 0.1 µM (17β-HSD1; [5]): 45%; inhibition at 1 µM (17β-HSD1; [6]): 61%; inhibition at 10 µM (17β-HSD1; [7]): 78%; Inhibition (% at 0.1 μM) (17β-HSD1; [5]): 44.9 ± 14.7%; Inhibition (% at 1 μM) (17β-HSD1; [6]): 60.9 ± 8.3%; Inhibition (% at 10 μM) (17β-HSD1; [7]): 78.1 ± 2.2% |
| C[C@]12CCC3c4ccc(O)cc4CCC3C1C[C@@H](CCCBr)[C@@H]2O (some centres unmarked) [EM-251] | 0.58 µM | 43.8 ± 0.2% | 36.9 ± 9.3% | 86.6 ± 8% |  |  |  |  |  |
| C[C@]12CC[C@@H]3c4ccc(CCBr)cc4CC[C@H]3[C@@H]1C[C@H](Cc1cccc(C(N)=O)c1)[C@@H]2O [PBRM] |  |  |  |  |  |  |  |  | Inhibition (% at 0.1 μM) (17β-HSD1; [5]): 44% and 43.8 ± 3.4%; Inhibition (% at 1 μM) (17β-HSD1; [6]): 75% and 74.8 ± 3.2%; Inhibition (% at 10 μM) (17β-HSD1; [7]): 91.0 ± 3.8%; IC50 (17β-HSD1; [4]): 0.15 µM |
| C#C[C@]1(O)CC[C@H]2[C@@H]3CCc4cc(OC)c(N5CCN(C(=O)[C@@H]6CCCN6C(=O)c6ccc7ccccc7n6)CC5)cc4[C@H]3CC[C@@]21C [RM-581, reference compound] |  |  |  |  |  |  |  |  | IC50 [1]: 0.61 µM; IC50 [2]: 1.5 µM |
